Legend:
human IRAK4 = target: T1, human IRAK4 (Homo sapiens, UniProt Q9NWZ3); assay: Human IRAK4 kinase activity inhibition assay (IRAK4 TR-FRET assay); assay type: biochemical; details: 1 mM ATP, GST-human IRAK4, average or median values
T1 construct: GST (N); made in house; host or cells: baculovirus-infected Hi5 (BTI-TN-5B1-4) insect cells
T1 sequence (Q9NWZ3 1-460): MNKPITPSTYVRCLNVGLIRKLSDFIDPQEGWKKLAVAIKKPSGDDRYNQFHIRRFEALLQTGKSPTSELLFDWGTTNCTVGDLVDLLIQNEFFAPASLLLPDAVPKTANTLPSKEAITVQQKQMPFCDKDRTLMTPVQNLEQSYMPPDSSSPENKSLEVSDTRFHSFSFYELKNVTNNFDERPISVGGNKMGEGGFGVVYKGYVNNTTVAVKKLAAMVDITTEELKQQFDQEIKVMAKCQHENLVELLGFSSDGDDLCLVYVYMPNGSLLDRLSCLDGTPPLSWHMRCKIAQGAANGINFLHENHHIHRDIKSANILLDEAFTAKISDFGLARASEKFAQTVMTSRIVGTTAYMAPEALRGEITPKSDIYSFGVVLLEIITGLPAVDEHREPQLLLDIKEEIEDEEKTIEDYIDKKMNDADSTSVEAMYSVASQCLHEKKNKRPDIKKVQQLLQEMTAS
In short: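 Signal was the 665/620 nm emission ratio from a europium anti-mouse-IgG, anti-phosphoserine antibody and streptavidin-XL665 complex formed over 1 h at 22°C. It was scaled between no-enzyme (100%) and no-compound (0%) wells. Beforehand, compounds (20 µM down to 0.073 nM, 11 points) sat 15 min with roughly 0.2 nM insect-cell-expressed GST-human IRAK4 before phosphorylation of a biotinylated peptide substrate.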

[1] = Metabolic stability in human liver microsomes; details: 1 µM compound; for CLblood, human microsomes: hepatic in vivo blood clearance calculated with well stirred liver model, '(stable)' given beside < 0.01; for Fmax, human microsomes: maximal oral bioavailability calculated with well stirred liver model, 0.5 mg/mL protein, '(stable)' given beside 100
Experimental: The in vitro metabolic stability of test compounds was determined by incubating them at 1 µM in a suspension liver microsomes in 100 mM phosphate buffer, pH7.4 (NaH2PO4 x H2O + Na2HPO4 x 2H2O) and at a protein concentration of 0.5 mg/mL at 37° C. The microsomes were activated by adding a co-factor mix containing 8 mM Glukose-6-Phosphat, 4 mM MgCl2, 0.5 mM NADP and 1 IU/mL G-6-P-Dehydrogenase in phosphate buffer, pH 7.4. The metabolic assay was started shortly afterwards by adding the test compound to the incubation at a final volume of 1 mL. Organic solvent in the incubations was limited to ≤0.01 % dimethylsulfoxide (DMSO) and ≤1% acetonitril. During incubation, the microsomal suspensions were continuously shaken at 580 rpm, and aliquots were taken at 2, 8, 16, 30, 45 and 60 min, to which equal volumes of cold methanol were immediately added. Samples were frozen at -20° C over night, subsequently centrifuged for 15 min at 3000 rpm and the supernatant was analyzed with an Agilent 1200 HPLC-system with LCMS/MS detection.
The half-life of a test compound was determined from the concentration-time plot. From the half-life the intrinsic clearances were calculated. Together with the additional parameters liver blood flow, specific liver weight and microsomal protein content the hepatic in vivo blood clearance (CL) and the maximal oral bioavailability (Fmax) were calculated using the "well stirred" liver model. The following parameter values were used: Liver blood flow - 1.32 L/h/kg (human), 2.1 L/h/kg (dog); specific liver weight - 21 g/kg (human), 39 g/kg (dog); microsomal protein content - 40 mg/g.

Row | SMILES | IC50 (human IRAK4) | CLblood, human microsomes [1] | Fmax, human microsomes [1]
1 | O[C@@H]1CN(c2nc(N[C@H]3C[C@H](O)C3)nc3c2cnn3-c2cccc(C(F)(F)F)c2)C[C@H]1O [Example I-101, (3R,4R)-1-(6-{[(1r,3R)-3-hydroxycyclobutyl]amino}-1-[3-(trifluoromethyl)phenyl]-1H-pyrazolo[3,4-d]pyrimidin-4-yl)pyrrolidine-3,4-diol] | 2.81 nM | 0.35 L/h/kg | 73%
2 | CC1(N2CCOCC2)CN(c2nc(NC3CCS(=O)(=O)CC3)nc3c2cnn3-c2cccc(C(F)(F)F)c2)C1 [Example I-106, N-(1,1-dioxidotetrahydro-2H-thiopyran-4-yl)-4-[3-methyl-3-(morpholin-4-yl)azetidin-1-yl]-1-[3-(trifluoromethyl)phenyl]-1H-pyrazolo[3,4-d]pyrimidin-6-amine] | 9.09 nM | 0.68 L/h/kg | 48%
3 | C[C@]1(O)C[C@@H](Nc2nc(N3C[C@@H](O)[C@H](O)C3)c3cnn(-c4cccc(C(F)(F)F)c4)c3n2)C1 [Example I-107] | 8.11 nM | 0.05 L/h/kg | 96%
4 | C[C@]1(O)C[C@H](Nc2nc(N3C[C@@H](O)[C@H](O)C3)c3cnn(-c4cccc(C(F)(F)F)c4)c3n2)C1 [Example I-108, (3R,4R)-1-(6-{[(1r,3R)-3-hydroxy-3-methylcyclobutyl]amino}-1-[3-(trifluoromethyl)-phenyl]-1H-pyrazolo[3,4-d]pyrimidin-4-yl)pyrrolidine-3,4-diol] | 3.72 nM | 0.16 L/h/kg | 88%
5 | CC1(O)CCN(C2CN(c3nc(N[C@H]4C[C@@H](O)C4)nc4c3cnn4-c3cccc(C(F)(F)F)c3)C2)CC1 [Example I-109, 1-(1-{6-[(cis-3-hydroxycyclobutyl)amino]-1-[3-(trifluoromethyl)phenyl]-1H-pyrazolo[3,4-d]pyrimidin-4-yl}azetidin-3-yl)-4-methylpiperidin-4-ol] | 10.6 nM | 0.33 L/h/kg | 75%
6 | CC1(O)CCN(C2CN(c3nc(N[C@H]4C[C@@](C)(O)C4)nc4c3cnn4-c3cccc(C(F)(F)F)c3)C2)CC1 [Example I-111, 1-(1-{6-[(cis-3-hydroxy-3-methylcyclobutyl)amino]-1-[3-(trifluoromethyl)phenyl]-1H-pyrazolo[3,4-d]pyrimidin-4-yl}azetidin-3-yl)-4-methylpiperidin-4-ol] | 11.1 nM | 0.13 L/h/kg | 90%
7 | O=C1CCCN1C1CN(c2nc(N[C@H]3C[C@@H](O)C3)nc3c2cnn3-c2cccc(C(F)(F)F)c2)C1 [Example I-112, 1-(1-{6-[(cis-3-hydroxycyclobutyl)amino]-1-[3-(trifluoromethyl)phenyl]-1H-pyrazolo[3,4-d]pyrimidin-4-yl}azetidin-3-yl)pyrrolidin-2-one] | 3.24 nM | 0.39 L/h/kg | 71%
8 | O=C1CCCN1C1CN(c2nc(N[C@H]3C[C@H](O)C3)nc3c2cnn3-c2cccc(C(F)(F)F)c2)C1 [Example I-113, 1-(1-{6-[(trans-3-hydroxycyclobutyl)amino]-1-[3-(trifluoromethyl)phenyl]-1H-pyrazolo-[3,4-d]pyrimidin-4-yl}azetidin-3-yl)pyrrolidin-2-one] | 3.6 nM | 0.03 L/h/kg | 98%
9 | OC1(CN2CCCC2)CCN(c2nc(N[C@H]3C[C@@H](O)C3)nc3c2cnn3-c2cccc(C(F)(F)F)c2)CC1 [Example I-114, 1-{6-[(cis-3-hydroxycyclobutyl)amino]-1-[3-(trifluoromethyl)phenyl]-1H-pyrazolo[3,4-d]pyrimidin-4-yl}-4-(pyrrolidin-1-ylmethyl)piperidin-4-ol] | 8.49 nM | 0.21 L/h/kg | 84%
10 | O=C1CN(C2CN(c3nc(N[C@H]4C[C@@H](O)C4)nc4c3cnn4-c3cccc(C(F)(F)F)c3)C2)CCN1 [Example I-115, 4-(1-{6-[(cis-3-hydroxycyclobutyl)amino]-1-[3-(trifluoromethyl)phenyl]-1H-pyrazolo[3,4-d]pyrimidin-4-yl}azetidin-3-yl)piperazin-2-one] | 7.51 nM | < 0.01 (stable) L/h/kg | 100 (stable) %
11 | O=C1C[C@H](Nc2nc(N3CC(N4CCOCC4)C3)c3cnn(-c4cccc(C(F)F)c4)c3n2)CN1 [II-1, (4S)-4-({1-[3-(difluoromethyl)phenyl]-4-[3-(morpholin-4-yl)azetidin-1-yl]-1H-pyrazolo[3,4-d]pyrimidin-6-yl}amino)pyrrolidin-2-one] | 3.46 nM | < 0.01 (stable) L/h/kg | 100 (stable) %
12 | CC(C)(O)CC1CN(c2nc(NC3CCS(=O)(=O)CC3)nc3c2cnn3-c2cccc(C(F)F)c2)C1 [II-7, 1-(1-{1-[3-(difluoromethyl)phenyl]-6-[(1,1-dioxidotetrahydro-2H-thiopyran-4-yl)amino]-1H-pyrazolo[3,4-d]pyrimidin-4-yl}azetidin-3-yl)-2-methylpropan-2-ol] | 5.37 nM | < 0.01 (stable) L/h/kg | 100 (stable) %
13 | CS(=O)(=O)[C@H]1C[C@H](Nc2nc(N3CC(N4CCOCC4)C3)c3cnn(-c4cccc(C(F)F)c4)c3n2)C1 [II-8, 1-[3-(difluoromethyl)phenyl]-N-[trans-3-(methylsulfonyl)cyclobutyl]-4-[3-(morpholin-4-yl)azetidin-1-yl]-1H-pyrazolo[3,4-d]pyrimidin-6-amine] | 2.01 nM | < 0.01 (stable) L/h/kg | 100 (stable) %
14 | O=C(CC1CN(c2nc(NC3CCS(=O)(=O)CC3)nc3c2cnn3-c2cccc(C(F)F)c2)C1)N1CCOCC1 [II-10, 2-(1-{1-[3-(difluoromethyl)phenyl]-6-[(1,1-dioxidotetrahydro-2H-thiopyran-4-yl)amino]-1H-pyrazolo[3,4-d]pyrimidin-4-yl}azetidin-3-yl)-1-(morpholin-4-yl)ethanone] | 4.31 nM | 0.42 L/h/kg | 68%
15 | CC(C)(O)C1CCN(c2nc(N[C@H]3C[C@H](S(C)(=O)=O)C3)nc3c2cnn3-c2cccc(C(F)F)c2)CC1 [II-11, 2-[1-(1-[3-(difluoromethyl)phenyl]-6-{[trans-3-(methylsulfonyl)cyclobutyl]amino}-1H-pyrazolo[3,4-d]pyrimidin-4-yl)piperidin-4-yl]propan-2-ol] | 2.67 nM | 0.25 L/h/kg | 81%
16 | CC(C)(O)CC1CN(c2nc(NC3CN(S(C)(=O)=O)C3)nc3c2cnn3-c2cccc(C(F)F)c2)C1 [II-14, 1-[1-(1-[3-(difluoromethyl)phenyl]-6-{[1-(methylsulfonyl)azetidin-3-yl]amino}-1H-pyrazolo[3,4-d]pyrimidin-4-yl)azetidin-3-yl]-2-methylpropan-2-ol] | 7.01 nM | < 0.01 (stable) L/h/kg | 100 (stable) %
17 | CS(=O)(=O)[C@H]1C[C@H](Nc2nc(N3C[C@H](O)[C@@H](F)C3)c3cnn(-c4cccc(C(F)F)c4)c3n2)C1 [II-16-2, (3S,4S)-1-(1-[3-(difluoromethyl)phenyl]-6-{[trans-3-(methanesulfonyl)cyclobutyl]amino}-1H-pyrazolo[3,4-d]pyrimidin-4-yl)-4-fluoropyrrolidin-3-ol] | 2.82 nM | < 0.01 (stable) L/h/kg | 100 (stable) %
18 | CS(=O)(=O)[C@H]1C[C@H](Nc2nc(N3C[C@@H](O)[C@H](F)C3)c3cnn(-c4cccc(C(F)F)c4)c3n2)C1 [II-16-3, (3R,4R)-1-(1-[3-(difluoromethyl)phenyl]-6-{[trans-3-(methanesulfonyl)cyclobutyl]-amino)-1H-pyrazolo[3,4-d]pyrimidin-4-yl)-4-fluoropyrrolidin-3-ol] | 1.62 nM | 0.08 L/h/kg | 94%
19 | CC(C)(O)C1CCN(c2nc(N[C@H]3C[C@@]4(CCN4)C3)nc3c2cnn3-c2cccc(C(F)F)c2)CC1 [II-18, 2-(1-{6-[(4r,6s)-1-azaspiro[3.3]heptan-6-ylamino]-1-[3-(difluoromethyl)phenyl]-1H-pyrazolo[3,4-d]pyrimidin-4-yl}piperidin-4-yl)propan-2-ol] | 1.4 nM | 0.10 L/h/kg | 93%
20 | CC(C)(O)CC1CN(c2nc(N[C@H]3C[C@H](S(C)(=O)=O)C3)nc3c2cnn3-c2cccc(C(F)F)c2)C1 [II-19, 1-[1-(1-[3-(difluoromethyl)phenyl]-6-{[trans-3-(methylsulfonyl)cyclobutyl]amino}-1H-pyrazolo[3,4-d]pyrimidin-4-yl)azetidin-3-yl]-2-methylpropan-2-ol] | 1.63 nM | 0.23 L/h/kg | 82%
